Test results from patent US5281608A, “Substituted tetrahydropyrido[3',4':4,5]-pyrrolo[3,2-c]quinolines” (American Home Products Corporation, priority 1992, dated 1994).
Values after ≈ are worked out from the molar mass of the structure shown.

Assays:
[1] = test system: rabbit articular chondrocytes (IL-1-induced neutral protease release); assay: Inhibition of IL-1-induced release of neutral protease from rabbit articular chondrocytes; format: cell-based, rabbit (Male New Zealand White); details: Oryctolagus cuniculus, Chondrocyte, human IL-1 stimulated, 24 h
Experimental: The ability of the compounds of the invention to inhibit interleukin 1 is measured by the ability of the test compounds to inhibit the IL-1-induced release of neutral protease from rabbit articular chondrocytes.
Male New Zealand White rabbits are anesthetized with 50 mg/kg of ketamine (i.m.) and killed by an intracardiac injection of 3 mls. of Nembutal. The knee joints of both legs are resected and the articular surfaces are exposed. Cartilage slices are obtained using a scalpel and are placed in a tissue culture dish (100 mm diameter) containing 10 mls of Hank's balanced salt solution (HBSS). The chondrocytes within the cartilage slices are then liberated by a series of enzyme digestions. The slices are incubated for 10 minutes at 37° C. in 0.05% hyaluronidase (Sigma H-3884), rinsed with HBSS and incubated with 0.2% trypsin (Sigma T-2395) for 10 minutes at 37° C. The slices are rinsed again and incubated for 10 minutes at 37° C. with 1.2% collagenase (Sigma C-5138). The slices are then rinsed again with HBSS and resuspended in 10 ml of Ham's F-12 medium containing 10% fetal bovine calf serum (FCS) and 0.2 % collagenase and incubated overnight at 37° C. in a 5% CO2 incubator. The next day, the medium containing the digested cartilage fragments and liberated chondrocytes is transferred to a 15 ml centrifuge tube and the cells are collected by centrifugation and washed twice and resuspended in Ham's F-12 medium. The cells are then plated into 24-well tissue culture plates (2×10^5 cells/well) and incubated at 37° C. until confluent (usually 4-6 days).
The confluent chondrocytes are rinsed twice with serum-free Ham's F-12 medium and 1 ml is added to each well. Fifty μl of purified human IL 1 (100 Units/ml; Genzyme Corporation, Boston, Mass.) is then added to stimulate these cells to secrete neutral protease. To measure drug effects, the cells are treated with test compound 10 minutes prior to addition of IL-1. The standard screening dose is 10 μM. Twenty-four hours after IL-1 stimulation, supernatant fluids are collected and assayed for neutral protease activity.
The neutral protease activity of chondrocyte supernatant fluids is determined by their ability to degrade an insoluble protease substrate, azocoll (Sigma). Supernatants are treated for 10 minutes at room temperature with 350 μM p-aminophenylmurcuric acetate to activate the latent enzyme. Three hundred μl of supernatant is then mixed with 500μl of a 20 mg/ml suspension of azocoll and incubated at 37° C. for 18-24 hours with gentle rocking. The mixtures are centrifuged and the amount of substrate hydrolyzed is determined by measuring the absorbance of the supernatant at 520 nm.
Drug effects are calculated as the % change in enzyme activity (absorbance)by supernatants from drug-treated chondrocytes relative to enzyme activity of supernatants from vehicle-treated chondrocytes as follows: [formula]

[2] = test system: rat limb bones (IL-1 induced bone resorption); assay: Bone resorption assay (45Ca release from rat limb bones), IL-1 induced; format: cell-based, rat (Sprague-Dawley CD); details: 48 h; for IC50: Rattus norvegicus, read-out: Inhibition of Bone Resorption, IL-1 Induced (IC50)
Experimental: (§1) The ability of the compounds of the invention to modify the process of bone resorption is evaluated in the bone resorption assay measuring ^45 Ca release from rat limb bones.
(§2) Limb bone preparation. Timed pregnant Sprague-Dawley CD® rats (Charles River) are administered 100 μCi ^45 CaCl2 (NEN calcium -45 NEZ-013) in 100 μl of 0.9% saline, subcutaneously, on day 18 of gestation. The rats are sacrificed the following day by CO2 asphyxiation. The fetuses are removed and the right forelimbs excised and placed in a Petri dish containing ice cold explant medium consisting of modified BGJb -Fitton Jackson media (custom formulation, Gibco No. 78-0088) adjusted to pH 7.3 to which 10 mM TES is added. The modified BGJb media is obtained without salts, glucose or bicarbonate and is supplemented before use with 0.1 mM MgCl2, 1.25 mM CaCl2, 5.3 mM KCl, 0.7 mM MgSO4, 130 mM NaCl, 1.0 mM NaH2 PO4, 1 g/L glucose, 50 mg/L Na acetate and 100 U/ml penicillin G. The medium is sterilized by passage through a 0.2 μ M filter (Nalge). Under a dissecting microscope, the bones are gently cleaned of adherent tissue and the cartilaginous ends removed. Incubation and drug treatment. The midshafts are placed, individually, on 3×3 mm squares of filter paper (Gelman GN-6 metricel filters; […] pore size) which rest on stainless steel screens in wells of 24-well culture plates containing 0.5 mL of preincubation medium. The preincubation medium is brought to 37° C. prior to transfer of bones. The preincubation medium consists of the modified BGJb medium (with salts and glucose as above), pH 7.3, containing 29 mM NaHCO3. After incubation for 18-24 hours at 37° C. in 5% CO2, the bones are transferred on their screen/filter paper supports to new plates containing, in a total volume of 0.5 mL/well at 37° C., the test compound diluted in preincubation medium supplemented with 15% heat inactivated horse serum (Gibco No. 230-6050), pH 7.3, with a bone resorption stimulating agent (e.g. parathyroid hormone [PTH] or interleukin-1 [IL-1]). For compounds that require nonaqueous solvents, dilutions are made from the appropriate stock solution with medium. In these instances, basal and bone resorption stimulated controls exposed to an equivalent concentration of the vehicle are included. An additional group of bones that have been subjected to boiling for 1 hour (kill control) are used to establish background, non cell mediated, exchange of ^45 Ca. The right ulna and radius from each fetus are used. Both bones are subjected to the same treatment and each treatment group consists of bones from 4 or more fetuses. Treatments are randomly assigned using a preclinical statistics program (PS-ALLOC). After a 48 hour incubation at 37° C. in 5% CO2, the bones are removed from the medium and extracted in 0.5 mL of 0.1N HCl for 1 or more days. Duplicate 150 μL aliquots of the incubation medium and the bone extract are analyzed for ^45 Ca radioactivity in 5 mL of liquid scintillation cocktail.
(§3) The percentage of bone ^45 Ca released into the medium is determined as follows: [formula] Results are normally expressed as the ratio of the percent ^45 Ca release of the experimental group versus the appropriate vehicle control, or as an IC50 value.

[3] = test system: rat limb bones (PTH-induced bone resorption); assay: Bone resorption assay (45Ca release from rat limb bones), PTH-induced; format: cell-based, rat (Sprague-Dawley CD); details: 48 h; for IC50: Rattus norvegicus, read-out: Inhibition of Bone Resorption, PTH-Induced (IC50)
Experimental: as §1, §2, §3

Compound	inhibition at 10 µM [1] [%]	Inhibition of Bone Resorption, IL-1 Induced (activity in words) [2]	IC50 [2] [µg/mL]	Inhibition of Bone Resorption, PTH-Induced (activity in words) [3]	IC50 [3] [µg/mL]	inhibition at 0.1 µM ([1]; dose 0.1 μM) [%]	inhibition at 1 µM ([1]; dose 1 μM) [%]	IC50 [1] [µM]
CS(=O)(=O)c1ccc(N2CCc3[nH]c4c(cnc5cc(Cl)ccc54)c3C2)cc1 [Example 1, 3-Chloro-8,9,10,11-tetrahydro-8-[4-(methylsulfonyl)phenyl]-7H-pyrido[3',4':4,5]pyrrolo[3,2-c]quinoline]	40	Active	6.84 (≈ 16.6 µM)	Active	0.633 (≈ 1.54 µM)			
CCOC(=O)c1ccc(N2CCc3[nH]c4c(cnc5cc(Cl)ccc54)c3C2)cc1 [Example 2, 4-(3-Chloro-8,9,10,11-tetrahydro-7H-pyrido[3',4':4,5]-pyrrolo[3,2-c]quinolin-8-yl)benzoic acid ethyl ester]	38	Active	3.39 (≈ 8.35 µM)	Active	0.98 (≈ 2.41 µM)			
N#Cc1ccc(N2CCc3[nH]c4c(cnc5cc(Cl)ccc54)c3C2)cc1 [Example 3, 4-(3-Chloro-8,9,10,11-tetrahydro-7H-pyrido[3',4':4,5]-pyrrolo[3,2-c]quinolin-8-yl)benzonitrile]	22							
O=C(c1cccs1)N1CCc2[nH]c3c(cnc4cc(Cl)ccc43)c2C1 [Example 4, 3-Chloro-8,9,10,11-tetrahydro-8-(2-thienylcarbonyl)-7H-pyrido[3',4':4,5]pyrrolo[3,2-c]quinoline]	64	Active at <5 μg/ml				14	20	7.3
N#Cc1ccc(C(=O)N2CCc3[nH]c4c(cnc5cc(Cl)ccc54)c3C2)cc1 [Example 5, 3-Chloro-8-(4-cyanobenzoyl)-8,9,10,11-tetrahydro-7H-pyrido[3',4':4,5]pyrrolo[3,2-c]quinoline]	28							
O=C(c1ccccc1)N1CCc2[nH]c3c(cnc4cc(Cl)ccc43)c2C1 [Example 6, 8-Benzoyl-3-Chloro-8,9,10,11-tetrahydro-7H-pyrido[3',4':4,5]pyrrolo[3,2-c]quinoline]	57	Active at 5 μg/ml		Active at 10 μg/ml				
O=C(Nc1ccccc1)N1CCc2[nH]c3c(cnc4cc(Cl)ccc43)c2C1 [Example 7, 3-Chloro-7,9,10,11-tetrahydro-N-phenyl-8H-pyrido-[3',4':4,5]pyrrolo[3,2-c]quinoline-8-carboxamide]	21							
O=C(c1cc2ccccc2s1)N1CCc2[nH]c3c(cnc4cc(Cl)ccc43)c2C1 [Example 10, 8-(Benzo[b]thien-2-ylcarbonyl)-3-chloro-8,9,10,11-tetrahydro-7H-pyrido[3',4':4,5]pyrrolo[3,2-c]quinoline]	24	Active	0.067 (≈ 0.16 µM)					
O=C(NC(=O)N1CCc2[nH]c3c(cnc4cc(Cl)ccc43)c2C1)c1ccccc1 [Example 13, N-Benzoyl-3-chloro-7,9,10,11-tetrahydro-8H-pyrido-[3',4':4,5]pyrrolo[3,2-c]quinoline-8-carboxamide]		Active	1.71 (≈ 4.22 µM)	Active	0.944 (≈ 2.33 µM)			
S=C(Nc1ccccc1)N1CCc2[nH]c3c(cnc4cc(Cl)ccc43)c2C1 [Example 14, 3-Chloro-7,9,10,11-tetrahydro-N-phenyl-8H-pyrido-[3',4':4,5]pyrrolo[3,2-c]quinoline-8-carbothioamide]		Active	1.21 (≈ 3.08 µM)	Active	1.2 (≈ 3.05 µM)			
CCOC(=O)c1ccc(NC(=O)N2CCc3[nH]c4c(cnc5cc(Cl)ccc54)c3C2)cc1 [Example 15, 4-[[(3-Chloro-7,9,10,11-tetrahydro-8H-pyrido[3',4':4,5]pyrrolo-[3,2-c]quinoline-8-yl)carbonyl]amino]benzoic acid ethyl ester]				Active	5.5 (≈ 12.3 µM)			
O=C(NCc1ccccc1)N1CCc2[nH]c3c(cnc4cc(Cl)ccc43)c2C1 [Example 16, 3-Chloro-7,9,10,11-tetrahydro-N-(phenylmethyl)-8H-pyrido-[3',4':4,5]pyrrolo[3,2-c]quinoline-8-carboxamide]		Active	6.22 (≈ 15.9 µM)	Active	2.52 (≈ 6.45 µM)			
O=C(NC(=S)N1CCc2[nH]c3c(cnc4cc(Cl)ccc43)c2C1)c1ccccc1 [Example 17]		Active	1.65 (≈ 3.92 µM)	Active	1.16 (≈ 2.76 µM)			
S=C(NCc1ccccc1)N1CCc2[nH]c3c(cnc4cc(Cl)ccc43)c2C1 [Example 18, 3-Chloro-7,9,10,11-tetrahydro-N-(phenylmethyl)-8H-pyrido-[3',4':4,5]pyrrolo[3,2-c]quinoline-8-carbothioamide]		Active	2.39 (≈ 5.87 µM)					
COc1cccc(NC(=O)N2CCc3[nH]c4c(cnc5cc(Cl)ccc54)c3C2)c1 [Example 20, 3-Chloro-7,9,10,11-tetrahydro-N-(3-methoxyphenyl)-8H-pyrido-[3',4':4,5]pyrrolo[3,2-c]quinoline-8-carboxamide]		Active	0.0088 (≈ 0.0216 µM)	Active	0.059 (≈ 0.145 µM)			
COc1ccc(S(=O)(=O)N2CCc3[nH]c4c(cnc5cc(Cl)ccc54)c3C2)cc1 [Example 21, 3-Chloro-8,9,10,11-tetrahydro-8-[(4-methoxyphenyl)sulfonyl]-7H-pyrido[3',4':4,5]pyrrolo[3,2-c]quinoline]		Active	8.48 (≈ 19.8 µM)					
